Source: patent US8609852B2, “Thiazolyl mGluR5 antagonists and methods for their use” (Merck Sharp & Dohme Corp., priority 2004, dated 2013)
pIC50, pKi: −log10 of the molar value. Counter-ions that a name gives are not always drawn.

Assays:
[1] = molecular target: metabotropic glutamate receptor subtype 5 (Rattus norvegicus (Rat), UniProt P31424); test: [3H]-mGluR5 Antagonist Binding to Rodent Brain Membranes
Method: In accordance with Anderson J J, Rao S P, Rowe B, Giracello D R, Holtz G, Chapman D F, Tehrani L, Bradbury M J, Cosford N D, Varney M A, [^3H]Methoxymethyl-3-[(2-methyl-1,3-thiazol-4-yl)ethynyl]pyridine binding to metabotropic glutamate receptor subtype 5 in rodent brain: in vitro and in vivo characterization. J Pharmacol Exp Ther. 2002 December; 303 (3):1044-51, membranes were prepared (as described in Ransom R W and Stec N L (1988) Cooperative modulation of [^3H]MK-801 binding to the N-methyl-D-aspartate receptor-ion channel complex by L-glutamate, glycine, and polyamines. J Neurochem 51:830-836) using whole rat brain, or mGlu5^+/+ or mGlu5^−/− whole mouse brain.
Binding assays were performed as described in Schaffhauser H, Richards J G, Cartmell J, Chaboz S, Kemp J A, Klingelschmidt A, Messer J, Stadler H, Woltering T and Mutel V (1998) In vitro binding characteristics of a new selective group II metabotropic glutamate receptor radioligand, [^3H]LY354740, in rat brain. Mol Pharmacol 53:228-233) at room temperature with slight modifications. Briefly, membranes were thawed and washed once with assay buffer (50 mM HEPES, 2 mM MgCl2, pH 7.4), followed by centrifugation at 40,000×g for 20 min. The pellet was resuspended in assay buffer and briefly homogenized with a Polytron.
For protein linearity experiments, increasing concentrations of membrane protein were added to 96-well plates in triplicate and binding was initiated by addition of 20 nM [^3H]methoxymethyl-3-[(2-methyl-1,3-thiazol-4-yl)ethynyl]pyridine. The assay was incubated for 2 h and non-specific binding was determined using 10 μM MPEP. The binding was terminated by rapid filtration through glass-fiber filters (Unifilter-96 GF/B plate, Packard) using a 96-well plate Brandel cell harvester. Following addition of scintillant, the radioactivity was determined by liquid scintillation spectrometry. Protein measurements were performed by BioRad-DC Protein assay using bovine serum albumin as the standard.
Saturation binding experiments were performed in triplicate with increasing concentrations of [^3H]methoxymethyl-3-[(2-methyl-1,3-thiazol-4-yl)ethynyl]pyridine (1 pM to 100 nM). The time course of association was measured by the addition of 10 nM [^3H]methoxymethyl-3-[(2-methyl-1,3-thiazol-4-yl)ethynyl]pyridine to the membranes at different time points (0-240 min), followed by filtration. Dissociation was measured by the addition of 100 μM unlabeled methoxymethyl-3-[(2-methyl-1,3-thiazol-4-yl)ethynyl]pyridine at different time points to membranes previously incubated for 3 h with 10 nM [^3H]methoxymethyl-3-[(2-methyl-1,3-thiazol-4-yl)ethynyl]pyridine. For competition experiments, 100 μg membrane protein and 10 nM [^3H]methoxymethyl-3-[(2-methyl-1,3-thiazol-4-yl)ethynyl]pyridine was added to wells containing increasing concentration of the test compound in duplicate (methoxymethyl-3-[(2-methyl-1,3-thiazol-4-yl)ethynyl]pyridine or MPEP). [^3H]-3-Methoxy-5-(pyridin-2-ylethynyl)pyridine may also be used as the radioligand in the procedure described above. (See, Cosford, N. D. P.; Roppe, J.; Tehrani, L.; Seiders, T. J.; Schweiger, E. J. et al. [3H]-Methoxymethyl-MTEP and [3H]-methoxy-PEPy): Potent and selective radioligands for the Metabotropic Glutamate Subtype 5 (mGlu5) Receptor. Bioorg. Med. Chem. Lett. 2003, 13, 351-354.)

hmGluR5a receptor = hmGluR5a receptor (Homo sapiens (Human), UniProt P41594); test: Calcium Flux Assay; format: cell-based; settings: hmGluR5a/L38-20 cells, glutamate-evoked [Ca2+]i
Method: The activity of compounds was examined against the hmGluR5a receptor stably expressed in mouse fibroblast Ltk− cells (the hmGluR5a/L38-20 cell line). See generally Daggett et al., Neuropharmacology 34:871-886 (1995). Receptor activity was detected by changes in intracellular calcium ([Ca^2+]i) measured using the fluorescent calcium-sensitive dye, fura-2. hmGluR5a/L38-20 cells were plated onto 96-well plates, and loaded with 3 µM fura-2 for 1 h. Unincorporated dye was washed from the cells, and the cell plate was transferred to a custom-built 96-channel fluorimeter (SIBIA-SAIC, La Jolla, Calif.) which is integrated into a fully automated plate handling and liquid delivery system. Cells were excited at 350 and 385 nm with a xenon source combined with optical filters. Emitted light was collected from the sample through a dichroic mirror and a 510 nm interference filter and directed into a cooled CCD camera (Princeton Instruments). Image pairs were captured approximately every 1 s, and ratio images were generated after background subtraction. After a basal reading of 20 s, an EC80 concentration of glutamate ([…]) was added to the well, and the response evaluated for another 60 s. The glutamate-evoked increase in [Ca^2+]i in the presence of the screening compound was compared to the response of glutamate alone (the positive control).

hmGluR5a receptor, sequence (P41594 other isoform, or with tags, fused parts or gaps): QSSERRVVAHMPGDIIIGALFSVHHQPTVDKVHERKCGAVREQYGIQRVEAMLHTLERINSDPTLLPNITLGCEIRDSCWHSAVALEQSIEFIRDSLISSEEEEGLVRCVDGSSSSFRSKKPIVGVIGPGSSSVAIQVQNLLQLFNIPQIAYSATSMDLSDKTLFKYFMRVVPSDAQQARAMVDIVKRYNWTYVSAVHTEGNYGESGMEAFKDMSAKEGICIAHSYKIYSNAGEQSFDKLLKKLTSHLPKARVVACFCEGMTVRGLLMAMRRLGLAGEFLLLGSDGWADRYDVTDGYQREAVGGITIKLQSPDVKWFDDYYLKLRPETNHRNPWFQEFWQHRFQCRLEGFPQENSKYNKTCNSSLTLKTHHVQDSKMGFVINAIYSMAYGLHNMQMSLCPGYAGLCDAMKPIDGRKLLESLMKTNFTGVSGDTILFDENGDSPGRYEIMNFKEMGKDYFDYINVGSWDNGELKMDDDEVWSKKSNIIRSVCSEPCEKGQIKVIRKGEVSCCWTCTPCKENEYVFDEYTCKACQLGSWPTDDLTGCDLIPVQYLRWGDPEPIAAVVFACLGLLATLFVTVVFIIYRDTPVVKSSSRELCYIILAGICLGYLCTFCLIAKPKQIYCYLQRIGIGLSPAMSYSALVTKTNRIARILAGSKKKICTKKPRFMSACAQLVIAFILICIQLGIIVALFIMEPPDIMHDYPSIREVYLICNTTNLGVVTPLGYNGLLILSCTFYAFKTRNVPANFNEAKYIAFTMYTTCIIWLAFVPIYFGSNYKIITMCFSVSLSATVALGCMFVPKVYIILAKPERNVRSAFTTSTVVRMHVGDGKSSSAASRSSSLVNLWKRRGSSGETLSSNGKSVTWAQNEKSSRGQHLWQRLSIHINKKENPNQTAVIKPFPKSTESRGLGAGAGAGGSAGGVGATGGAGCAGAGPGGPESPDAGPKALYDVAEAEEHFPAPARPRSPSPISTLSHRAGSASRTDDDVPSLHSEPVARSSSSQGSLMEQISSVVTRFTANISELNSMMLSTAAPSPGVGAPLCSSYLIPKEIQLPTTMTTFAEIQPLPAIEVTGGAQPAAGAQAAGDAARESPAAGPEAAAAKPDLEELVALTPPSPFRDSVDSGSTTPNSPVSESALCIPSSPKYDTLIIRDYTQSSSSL
metabotropic glutamate receptor subtype 5, sequence (P31424 21-1203): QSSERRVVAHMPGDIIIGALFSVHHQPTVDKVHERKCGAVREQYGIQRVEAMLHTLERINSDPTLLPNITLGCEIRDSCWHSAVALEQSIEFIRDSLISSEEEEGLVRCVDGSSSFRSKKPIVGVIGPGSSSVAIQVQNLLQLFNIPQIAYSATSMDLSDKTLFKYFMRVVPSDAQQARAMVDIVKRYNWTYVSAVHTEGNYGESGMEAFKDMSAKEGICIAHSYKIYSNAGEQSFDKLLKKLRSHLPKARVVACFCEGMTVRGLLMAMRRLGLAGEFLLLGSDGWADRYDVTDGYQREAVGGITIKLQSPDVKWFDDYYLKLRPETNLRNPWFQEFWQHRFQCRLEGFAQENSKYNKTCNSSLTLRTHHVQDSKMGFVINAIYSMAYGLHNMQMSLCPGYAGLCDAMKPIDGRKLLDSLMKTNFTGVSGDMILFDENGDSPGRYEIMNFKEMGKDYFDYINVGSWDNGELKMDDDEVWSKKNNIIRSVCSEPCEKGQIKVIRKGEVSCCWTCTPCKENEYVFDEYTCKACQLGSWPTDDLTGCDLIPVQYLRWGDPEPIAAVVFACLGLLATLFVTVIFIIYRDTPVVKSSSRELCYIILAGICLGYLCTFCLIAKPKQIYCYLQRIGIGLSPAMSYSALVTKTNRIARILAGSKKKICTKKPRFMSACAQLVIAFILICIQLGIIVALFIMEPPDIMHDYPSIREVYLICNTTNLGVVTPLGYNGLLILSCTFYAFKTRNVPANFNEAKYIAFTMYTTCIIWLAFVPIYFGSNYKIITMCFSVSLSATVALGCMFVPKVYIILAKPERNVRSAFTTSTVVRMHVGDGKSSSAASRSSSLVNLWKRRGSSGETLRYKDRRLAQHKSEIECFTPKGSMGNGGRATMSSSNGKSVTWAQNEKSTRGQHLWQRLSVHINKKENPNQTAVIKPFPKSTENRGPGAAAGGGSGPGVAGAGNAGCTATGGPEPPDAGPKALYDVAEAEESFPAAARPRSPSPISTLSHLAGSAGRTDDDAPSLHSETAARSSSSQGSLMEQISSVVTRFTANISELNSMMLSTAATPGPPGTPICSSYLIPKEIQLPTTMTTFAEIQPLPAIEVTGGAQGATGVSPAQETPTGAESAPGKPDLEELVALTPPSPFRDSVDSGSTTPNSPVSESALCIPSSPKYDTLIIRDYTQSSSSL

Row | SMILES | pKi [1] | pIC50 (hmGluR5a receptor)
1 | Cc1nc(C#Cc2ccc(-c3ccccc3F)nc2)cs1 [Example 2, 2-(2-fluorophenyl)-5-[(2-methyl-1,3-thiazol-4-yl)ethynyl]pyridine] | 8.70 | 9.00
2 | Cc1nc(C#Cc2ccc(-c3cccc(F)c3)nc2)cs1 [Example 3, 2-(3-fluorophenyl)-5-[(2-methyl-1,3-thiazol-4-yl)ethynyl]pyridine] | 8.57 | 9.05
3 | Cc1nc(C#Cc2ccc(-c3ccccc3C#N)nc2)cs1 [Example 4, 2-{5-[(2-methyl-1,3-thiazol-4-yl)ethynyl]pyridin-2-yl}benzonitrile] |  | 8.66
4 | Cc1nc(C#Cc2ccc(-c3ccccc3C)nc2)cs1 [Example 5, 2-(2-methylphenyl)-5-[(2-methyl-1,3-thiazol-4-yl)ethynyl]pyridine] | 9.00 | 8.20
5 | COc1ccc(F)cc1-c1ccc(C#Cc2csc(C)n2)cn1 [Example 6, 2-(5-fluoro-2-methoxyphenyl)-5-[(2-methyl-1,3-thiazol-4-yl)ethynyl]pyridine] | 8.92 | 8.36
6 | Cc1nc(C#Cc2ccc(-c3ccccc3Cl)nc2)cs1 [Example 7, 2-(2-chlorophenyl)-5-[(2-methyl-1,3-thiazol-4-yl)ethynyl]pyridine] | 9.15 | 8.96
7 | COc1ccccc1-c1ccc(C#Cc2csc(C)n2)cn1 [Example 8, 2-(2-methoxyphenyl)-5-[(2-methyl-1,3-thiazol-4-yl)ethynyl]pyridine] | 9.05 | 9.00
8 | Cc1nc(C#Cc2ccc(-c3ccc(F)cc3C)nc2)cs1 [Example 9, 2-(4-fluoro-2-methylphenyl)-5-[(2-methyl-1,3-thiazol-4-yl)ethynyl]pyridinium trifluoroacetate] |  | 8.96
9 | COc1c(F)cc(F)cc1-c1ccc(C#Cc2csc(C)n2)cn1 [Example 10, 2-(3,5-difluoro-2-methoxyphenyl)-5-[(2-methyl-1,3-thiazol-4-yl)ethynyl]pyridinium trifluoroacetate] |  | 9.15
10 | COc1cc(F)ccc1-c1ccc(C#Cc2csc(C)n2)cn1 [Example 11, 2-(4-fluoro-2-methoxyphenyl)-5-[(2-methyl-1,3-thiazol-4-yl)ethynyl]pyridinium trifluoroacetate] |  | 8.89
11 | Cc1nc(C#Cc2ccc(-c3cc(F)ccc3C)nc2)cs1 [Example 12, 2-(5-fluoro-2-methylphenyl)-5-[(2-methyl-1,3-thiazol-4-yl)ethynyl]pyridinium trifluoroacetate] | 8.96 | 9.22
12 | Cc1nc(C#Cc2cnc(-c3ccccc3C)nc2)cs1 [Example 13, 2-(2-methylphenyl)-5-[(2-methyl-1,3-thiazol-4-yl)ethynyl]pyrimidine] | 9.22 | 9.22
13 | CSc1ccccc1-c1ncc(C#Cc2csc(C)n2)cn1 [Example 14, 5-[(2-methyl-1,3-thiazol-4-yl)ethynyl]-2-[2-(methylthio)phenyl]pyrimidine] | 8.12 | 9.10
14 | Cc1nc(C#Cc2cnc(-c3ccccc3Cl)nc2)cs1 [Example 15, 2-(2-chlorophenyl)-5-[(2-methyl-1,3-thiazol-4-yl)ethynyl]pyrimidine] | 8.59 | 9.00
15 | Cc1nc(C#Cc2cnc(-c3cccc(C)c3C)nc2)cs1 [Example 16, 2-(2,3-dimethylphenyl)-5-[(2-methyl-1,3-thiazol-4-yl)ethynyl]pyrimidine] | 8.07 | 9.40
16 | Cc1nc(C#Cc2ccc(-n3ccc4cccnc43)nc2)cs1 [Example 17, 1-{5-[(2-methyl-1,3-thiazol-4-yl)ethynyl]pyridin-2-yl}-1H-pyrrolo[2,3-b]pyridine] | 8.42 | 9.40
17 | Cc1nc(C#Cc2ccc(N3CCCCC3)nc2)cs1 [Example 19, 5-[(2-methyl-1,3-thiazol-4-yl)ethynyl]-2-piperidin-1-ylpyridine] | 8.55 | 8.74

Row | SMILES | pKi [1] | pIC50 (hmGluR5a receptor)
18 | Cc1nc(C#Cc2ccc(N3CCCC3C)nc2)cs1 (stereo not drawn) [Example 20, 2-(2-methylpyrrolidin-1-yl)-5-[(2-methyl-1,3-thiazol-4-yl)ethynyl]pyridine] | 8.85 | 9.00
19 | Cc1nc(C#Cc2cnc(N3CCCC3C)nc2)cs1 (stereo not drawn) [Example 21, 2-(2-methylpyrrolidin-1-yl)-5-[(2-methyl-1,3-thiazol-4-yl)ethynyl]pyrimidine] | 8.82 | 8.82
20 | Cc1nc(C#Cc2cnc(NC(C)(C)C)nc2)cs1 [Example 22, N-(tert-butyl)-5-[(2-methyl-1,3-thiazol-4-yl)ethynyl]pyrimidin-2-amine] | 9.05 | 8.92
21 | Cc1nc(C#Cc2cnc(N3CCCCC3)nc2)cs1 [Example 24, 5-[(2-methyl-1,3-thiazol-4-yl)ethynyl]-2-piperidin-1-ylpyrimidine] | 8.59 | 9.52
22 | Cc1nc(C#Cc2cnc(OC(C)C)nc2)cs1 [Example 25, 2-isopropoxy-5-[(2-methyl-1,3-thiazol-4-yl)ethynyl]pyrimidine] | 8.05 | 8.85
23 | Cc1nc(C#Cc2ccc(OC(C)C)nc2)cs1 [Example 26, 2-isopropoxy-5-[(2-methyl-1,3-thiazol-4-yl)ethynyl]pyridinium trifluoroacetate] | 8.70 | 10.00
24 | Cc1nc(C#Cc2ccc(OC(C)(C)C)nc2)cs1 [Example 27, 2-tert-butoxy-5-[(2-methyl-1,3-thiazol-4-yl)ethynyl]pyridine] | 9.00 | 8.85
25 | Cc1nc(C#Cc2ccc(SC(C)(C)C)nc2)cs1 [Example 28, 2-(tert-butylthio)-5-[(2-methyl-1,3-thiazol-4-yl)ethynyl]pyridine] | 9.05 | 8.77
26 | Cc1nc(C#Cc2cnc(SC(C)(C)C)nc2)cs1 [Example 29, 2-(tert-butylthio)-5-[(2-methyl-1,3-thiazol-4-yl)ethynyl]pyrimidine] | 8.00 | 9.30
27 | Cc1nc(C#Cc2ccc(C3CCCCC3)nc2)cs1 [Example 30, 2-cyclohexyl-5-[(2-methyl-1,3-thiazol-4-yl)ethynyl]pyridine] | 8.64 | 8.66
28 | Cc1nc(C#Cc2ccc(C(C)(C)C)nc2)cs1 [Example 31, 2-tert-butyl-5-[(2-methyl-1,3-thiazol-4-yl)ethynyl]pyridine] | 7.91 | 8.54
29 | Cc1nc(C#Cc2cnc(C3CCCCC3)nc2)cs1 [Example 32, 2-cyclohexyl-5-[(2-methyl-1,3-thiazol-4-yl)ethynyl]pyrimidine] | 8.32 | 9.00
30 | Cc1nc(C#Cc2ccc(-c3ccc(F)cc3F)nc2)cs1 [Example 33] | 8.15 | 7.72
31 | Cc1cc(C#N)cc(-c2ccc(C#Cc3csc(C)n3)cn2)c1 [Example 34] | 7.82 | 7.74
32 | Cc1nc(C#Cc2ccc(-c3cccc(-n4cccn4)c3)nc2)cs1 [Example 87] |  | 8.70
33 | Cc1nc(C#Cc2cnc(-c3ccccc3F)nc2)cs1 [Example 106] | 8.22 | 
